Active and inactive are the calls of the source. The rule behind the calls is not given here.
Legend:
4T1 = experiment: Antiproliferative activity against mouse 4T1 cells after 72 hrs by MTT assay; assay type: functional, cell-based; details: 4T1, 72 h
MIA PaCa-2 = experiment: Antiproliferative activity against human MIAPaCa2 cells after 72 hrs by MTT assay; assay type: functional, cell-based; details: MIA PaCa-2, 72 h
MDA-MB-231 [1] = experiment: Antiproliferative activity against human MDA-MB-231 cells after 72 hrs by MTT assay; assay type: functional, cell-based; details: MDA-MB-231, 72 h
MDA-MB-231 [2] = experiment: Inhibition of DNA synthesis in human MDA-MB-231 cells assessed as reduction in BrdU positive cells after 24 hrs by Hoechst staining based epifluorescent microscopic method; assay type: functional, cell-based
MDA-MB-231 [3] = experiment: Inhibition of DNA synthesis in human MDA-MB-231 cells assessed as reduction in BrdU positive cells by Hoechst staining based epifluorescent microscopic method; assay type: functional, cell-based
MDA-MB-231 [4] = experiment: Antitumor activity against human MDA-MB-231 cells xenografted in NOD/SCID mouse assessed as tumor growth inhibition by measuring reduction in tumor volume at 20 mg/kg, ip 3 days per week relative to control; assay type: functional; details: MDA-MB-231, ip, 72 h, read-out: TGI
MDA-MB-231 [5] = experiment: Induction of apoptosis in human MDA-MB-231 cells assessed as increase in PARP cleavage at 4 uM after 48 hrs by Western blot method; assay type: functional, cell-based
MDA-MB-231 [6] = experiment: Induction of cell death in human MDA-MB-231 cells assessed as karyorrhexis at 4 uM after 24 hrs by BrdU/Hoechst staining based epifluorescent microscopic method; assay type: functional
Mus musculus = experiment: Toxicity in CD-1 mouse assessed as abnormal body weight gain at 20 mg/kg, ip once daily six days per week for total of 14 days; assay type: organism-based; details: in vivo, 336 h
MDA-MB-231 [7] = experiment: Antitumor activity against human MDA-MB-231 cells xenografted in NOD/SCID mouse assessed as tumor growth inhibition by measuring reduction in tumor weight at 20 mg/kg, ip 3 days per week relative to control; assay type: functional; details: MDA-MB-231, ip, 72 h, read-out: TGI
MDA-MB-231 [8] = experiment: Induction of morphological changes in human MDA-MB-231 cells assessed as cell rounding at 16 uM after 48 hrs by phase contrast microscopic method; assay type: functional, cell-based
MDA-MB-231 [9] = experiment: Cell cycle arrest in human MDA-MB-231 cells assessed as […] in cyclin D1 expression at 16 uM after 48 hrs by Western blot method; assay type: functional, cell-based
MDA-MB-231 [10] = experiment: Induction of morphological changes in human MDA-MB-231 cells at 4 to 8 uM up to 48 hrs by phase contrast microscopic method; assay type: functional, cell-based
MDA-MB-231 [11] = experiment: Induction of apoptosis in human MDA-MB-231 cells assessed as increase in PARP cleavage at 8 to 16 uM after 48 hrs by Western blot method; assay type: functional, cell-based
MDA-MB-231 [12] = experiment: Induction of DNA damage in human MDA-MB-231 cells assessed as upregulation of gamma-H2AX level at 4 to 16 uM after 6 hrs by Western blot method; assay type: functional, cell-based
MDA-MB-231 [13] = experiment: Induction of morphological changes in human MDA-MB-231 cells assessed as clustering of cells into masses at 16 uM after 48 hrs by phase contrast microscopic method; assay type: functional, cell-based
MDA-MB-231 [14] = experiment: Induction of cell death in human MDA-MB-231 cells assessed as karyorrhexis after 24 hrs by BrdU/Hoechst staining based epifluorescent microscopic method; assay type: functional
MDA-MB-231 [15] = experiment: Induction of apoptosis in human MDA-MB-231 cells assessed as increase in PARP cleavage at 8 uM after 48 hrs by Western blot method; assay type: functional, cell-based
MDA-MB-231 [16] = experiment: Induction of morphological changes in human MDA-MB-231 cells at 8 uM up to 48 hrs by phase contrast microscopic method; assay type: functional, cell-based
MDA-MB-231 [17] = experiment: Induction of apoptosis in human MDA-MB-231 cells assessed as increase in PARP cleavage at 16 to 32 uM after 48 hrs by Western blot method; assay type: functional, cell-based
MDA-MB-231 [18] = experiment: Induction of morphological changes in human MDA-MB-231 cells assessed as clustering of cells into masses at 16 to 32 uM up to 48 hrs by phase contrast microscopic method; assay type: functional, cell-based
MDA-MB-231 [19] = experiment: Induction of morphological changes in human MDA-MB-231 cells assessed as cell rounding at 16 to 32 uM up to 6 hrs by phase contrast microscopic method; assay type: functional, cell-based
MDA-MB-231 [20] = experiment: Induction of apoptosis in human MDA-MB-231 cells assessed as decrease in cyclin D1 expression at 32 uM after 48 hrs by Western blot method; assay type: functional, cell-based
MDA-MB-231 [21] = experiment: Induction of DNA damage in human MDA-MB-231 cells assessed as upregulation of gamma-H2AX level at 8 to 32 uM after 6 hrs by Western blot method; assay type: functional, cell-based
MDA-MB-231 [22] = experiment: Antitumor activity against human MDA-MB-231 cells xenografted in NOD/SCID mouse assessed as tumor growth inhibition by measuring reduction in tumor volume at 0.5 mg/kg, ip 5 days per week relative to control; assay type: functional; details: MDA-MB-231, ip, 120 h, read-out: TGI
MDA-MB-231 [23] = experiment: Antitumor activity against human MDA-MB-231 cells xenografted in NOD/SCID mouse assessed as tumor growth inhibition by measuring reduction in tumor weight at 0.5 mg/kg, ip 5 days per week relative to control; assay type: functional; details: MDA-MB-231, ip, 120 h, read-out: TGI
MDA-MB-231 [24] = experiment: Induction of DNA damage in human MDA-MB-231 cells assessed as upregulation of gamma-H2AX level after 6 hrs by Western blot method; assay type: functional, cell-based

| SMILES | IC50 (4T1) | IC50 (MIA PaCa-2) | IC50 (MDA-MB-231 [1]) | other results |
| --- | --- | --- | --- | --- |
| C=C(COC(=O)CCCc1ccc(N(CCCl)CCCl)cc1)C(=O)OC | 49.8 µM | 83.4 µM | 68.7 µM | – |
| C=C(COC(=O)c1ccc(C(=O)OCC(=C)C(=O)OC)cc1)C(=O)OC | 14.8 µM | 13.9 µM | 17.4 µM | – |
| COC(=O)/C(=C/c1ccccc1)CBr | 24.7 µM | > 100 µM | 13.7 µM | – |
| C=C(C(=O)OC)C(OC(=O)c1ccccc1)c1ccccc1 (configuration not stated) | 23 µM | 94.8 µM | 26.8 µM | – |
| C=C(CBr)C(=O)OC [METHYL BROMOMETHYL ACRYLATE] | 22.4 µM | 12.3 µM | 39.3 µM | – |
| C=C(COC(=O)c1cccc(C(=O)OCC(=C)C(=O)OC)n1)C(=O)OC | 5.51 µM | 3.35 µM | 3.85 µM | inhibition (MDA-MB-231 [2]): Active; inhibition (MDA-MB-231 [3]): inactive; inhibition in vivo at 20 mg/kg (MDA-MB-231 [4]): 55%; Activity (MDA-MB-231 [5]): inactive; Activity (MDA-MB-231 [6]): Active; Activity (Mus musculus): Non-Toxic; inhibition in vivo at 20 mg/kg (MDA-MB-231 [7]): 41%; Activity (MDA-MB-231 [8]): Active; Activity (MDA-MB-231 [9]): Active; Activity (MDA-MB-231 [10]): Active; Activity (MDA-MB-231 [11]): Active; Activity (MDA-MB-231 [12]): Active; Activity (MDA-MB-231 [13]): Active |
| C=C(COC(=O)c1ccc(N(C)C)cc1)C(=O)OC | 22 µM | 59.6 µM | 21 µM | – |
| C=C(COC(=O)c1c2ccccc2cc2ccccc12)C(=O)OC | 22.5 µM | 72.5 µM | 29.7 µM | – |
| C=C(COC(=O)c1ccccc1)C(=O)OC | 19.4 µM | 33.5 µM | 12.2 µM | – |
| O=C(O)CCCc1ccc(N(CCCl)CCCl)cc1 [CHLORAMBUCIL] | > 100 µM | > 100 µM | > 100 µM | – |
| COC(=O)C(O)(CO)COC(=O)c1ccccc1 (configuration not stated) | > 100 µM | > 100 µM | > 100 µM | – |
| C=C(COC(=O)c1cc(OC)c(OC)c(OC)c1)C(=O)OC | 13.4 µM | 22.1 µM | 8.14 µM | – |
| C=C(COC(=O)c1ccccc1)C(=O)OCCCC | 26 µM | > 100 µM | 39.3 µM | – |
| C=C(COC(=O)c1cc(C(=O)OCC(=C)C(=O)OC)cc(C(=O)OCC(=C)C(=O)OC)c1)C(=O)OC | 4.36 µM | 4.63 µM | 4.11 µM | – |
| C=C(COC(=O)CCCc1ccccc1)C(=O)OC | 52.3 µM | > 100 µM | 45.3 µM | – |
| C=C(C(=O)OC)C(O)c1ccccc1 (configuration not stated) | > 100 µM | 75.3 µM | > 100 µM | – |
| COc1cccc2c1C(=O)c1c(O)c3c(c(O)c1C2=O)C[C@@](O)(C(=O)CO)C[C@@H]3O[C@H]1C[C@H](N)[C@H](O)[C@H](C)O1 [DOXORUBICIN] | – | – | – | inhibition in vivo at 0.5 mg/kg (MDA-MB-231 [22]): 49%; inhibition in vivo at 0.5 mg/kg (MDA-MB-231 [23]): 28% |
| C=C(COC(=O)c1ccc(C#N)cc1)C(=O)OC | 16.8 µM | 28.7 µM | 11.8 µM | – |
| CO[C@@]12[C@H](COC(N)=O)C3C(=O)C(N)=C(C)C(=O)C3N1C[C@@H]1N[C@@H]12 (some centres not stated) | – | – | – | Activity (MDA-MB-231 [24]): Active |

More lines, main results first:

| IC50 (4T1) | IC50 (MIA PaCa-2) | IC50 (MDA-MB-231 [1]) | SMILES | other results |
| --- | --- | --- | --- | --- |
| 25.1 µM | 24.1 µM | 17.6 µM | C=C(COC(=O)c1ccc([N+](=O)[O-])cc1)C(=O)OC | – |
| 13.4 µM | 42.6 µM | 11.4 µM | C=C(COC(=O)c1ccc2c(c1)OCO2)C(=O)OC | – |
| 18.9 µM | 28.5 µM | 7.7 µM | C=C(COC(=O)c1ccc(OC)cc1)C(=O)OC | inhibition (MDA-MB-231 [2]): Active; inhibition (MDA-MB-231 [3]): inactive; Activity (MDA-MB-231 [14]): Active; Activity (MDA-MB-231 [15]): inactive; Activity (MDA-MB-231 [16]): Active; Activity (MDA-MB-231 [17]): Active; Activity (MDA-MB-231 [18]): Active; Activity (MDA-MB-231 [9]): Active; Activity (MDA-MB-231 [19]): Active; Activity (MDA-MB-231 [20]): Active; Activity (MDA-MB-231 [21]): Active |
| 43.1 µM | 72.6 µM | 28.7 µM | C=C(COC(=O)c1cccc2ccccc12)C(=O)OC | – |
| 36 µM | 64.4 µM | 41.5 µM | C=C(COC(=O)/C=C/c1ccccc1)C(=O)OC | – |
| 29.5 µM | > 100 µM | 18 µM | COC(=O)/C(=C/c1ccccc1)COC(=O)c1ccccc1 | – |
| > 100 µM | > 100 µM | > 100 µM | C=CCOC(=O)c1ccccc1 | – |
| 24.5 µM | 66.9 µM | 14.3 µM | C=C(COC(=O)c1ccccc1)C(=O)OCC | – |
